According to patent publication US12612412B2, “Antiviral heterocyclic compounds” (Enanta Pharmaceuticals, Inc., priority 2021, dated 2026):
Like-named read-outs stand apart in the source and are kept apart here.

Legend:
[1] = tested on: recombinant HMPV CAN97-83 containing eGFP (MPV-GFP1); experiment: HMPV antiviral assay Method-A (MPV-GFP1 eGFP fluorescence in Vero E6 cells); assay type: cell-based, Human metapneumovirus (HMPV); settings: read-out: HMPV EC50
Method in brief: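 Vero E6 cells in serum-free OptiMEM with 0.5 μg/mL TPCK-trypsin were infected with eGFP-expressing HMPV CAN97-83 at MOI 0.05, with 8-point twofold dilutions from 8 or 2 μM (0.5% DMSO). After 5 days at 32° C, eGFP fluorescence gave % inhibition versus infected untreated wells. EC50 came from four-parameter logistic fits.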

[2] = tested on: genotype A, "Long" strain RSV; experiment: RSV-A assay (CPE protection in Hep-2 cells, ATPlite readout); assay type: cell-based, Human respiratory syncytial virus (HRSV); settings: genotype A “Long” strain RSV, MOI 0.1, CPE protection, read-out: Human RSV-A (“Long”)
Method in brief: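 Hep-2 cells (8,000/well) infected with RSV Long strain at MOI 0.1 in the presence of 2-fold compound dilutions in duplicate. After 5 days, cell viability measured by ATPlite luminescence, normalized between virus-only and uninfected cell controls; EC50 reported.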

[3] = human metapneumovirus, Vero C1008, 120 h
[4] = human respiratory syncytial virus

Compound | EC50 [1, 3] [nM] | EC50 [2, 4] [nM] | EC50 ([1]; Method-A, MPV-GFP1 in Vero E6 cells, eGFP fluorescence after 5 days) [nM] | EC50 [2] [nM]
COc1cc(C(=O)NC[C@](O)(c2cc3c(c(-c4ccc(F)cc4)n2)OC[C@]3(C)C(N)=O)C(F)(F)F)cc2cc[nH]c12 [Example 200] | > 500 | < 200 |  | 
C[C@]1(C(N)=O)COc2c1cc([C@@](O)(CNC(=O)c1ccc3nn(C4CC4)cc3c1)C(F)(F)F)nc2-c1ccc(F)cc1 [Example 170] | < 500 | < 200 |  | 
C[C@]1(C(N)=O)COc2c1cc([C@@](O)(CNC(=O)c1ccc3nc(NCCN)sc3c1)C(F)(F)F)nc2-c1ccc(F)cc1 [Example 165] | > 500 | < 200 |  | 
COc1cc(C(=O)NC[C@](O)(c2cc3c(c(-c4ccc(F)cc4)n2)OC[C@]3(C)C(N)=O)C(F)(F)F)cc2cn[nH]c12 [Example 108] | > 500 | < 200 |  | 
CC[C@]1(C(N)=O)COc2c1cc([C@@](O)(CNC(=O)c1cc(OC)c3nn(C(F)F)cc3c1)C(F)(F)F)nc2-c1ccc(F)cc1 [Example 234] | < 500 | < 200 |  | 
C[C@]1(C(N)=O)COc2c1cc([C@@](O)(CNC(=O)c1cc(Cl)c3nn(C(F)F)cc3c1)C(F)(F)F)nc2-c1ccc(F)c(Cl)c1 [Example 44] | < 500 | < 200 |  | 
CC(C)n1cc2cc(C(=O)NC[C@](O)(c3cc4c(c(-c5ccc(F)cc5)n3)OC[C@]4(C)C(N)=O)C(F)(F)F)ccc2n1 [Example 169] | > 500 | < 200 |  | 
C[C@@H](N)C(=O)Nc1nc2ccc(C(=O)NC[C@](O)(c3cc4c(c(-c5ccc(F)cc5)n3)OC[C@]4(C)C(N)=O)C(F)(F)F)cc2s1 [Example 158] |  |  | > 500 | < 200
C[C@]1(C(N)=O)COc2c1cc([C@@](O)(CNC(=O)c1ccc(OC[C@H](O)C(F)(F)F)c(OC3CC3)c1)C(F)(F)F)nc2-c1ccc(F)cc1 [Example 135] | > 500 | < 200 |  | 
C[C@]1(C(N)=O)COc2c1cc([C@@](O)(CNC(=O)c1cc(F)c3nn(C4CC4)cc3c1)C(F)(F)F)nc2-c1ccc(F)c(Cl)c1 [Example 29] | < 500 | < 200 |  | 
CCc1cc2cc(C(=O)NC[C@](O)(c3cc4c(c(-c5ccc(F)cc5)n3)OC[C@]4(C)C(N)=O)C(F)(F)F)cc(OC)c2nc1C [Example 174] | > 500 | < 200 |  | 
C[C@]1(C(N)=O)COc2c1cc([C@@](O)(CNC(=O)c1ccc3nc(C4CC4)sc3c1)C(F)(F)F)nc2-c1ccc(F)cc1 [Example 14] | < 500 | < 200 |  | 
C[C@]1(C(N)=O)COc2c1cc([C@@](O)(CNC(=O)c1cc(Cl)c3nn(C4CC4)cc3c1)C(F)(F)F)nc2-c1ccc(F)c(Cl)c1 [Example 85] | < 500 | < 200 |  | 
CCc1nc2ccc(C(=O)NC[C@](O)(c3cc4c(c(-c5ccc(F)cc5)n3)OC[C@]4(C)C(N)=O)C(F)(F)F)cc2s1 [Example 11] | > 500 | < 200 |  | 
COc1cc(C(=O)NC[C@](O)(c2cc3c(c(-c4ccc(F)c(Cl)c4)n2)OC[C@]3(C)C(N)=O)C(F)(F)F)cc2cc(C3CC3)nn12 [Example 32] | < 500 | < 200 |  | 
COc1cc(C(=O)NC[C@](O)(c2cc3c(c(-c4ccc(F)cc4)n2)OC[C@]3(C)C(N)=O)C(F)(F)F)cc2cc(Cl)c(C)nc12 [Example 82] | < 500 | < 200 |  | 
C[C@]1(C(N)=O)COc2c1cc([C@@](O)(CNC(=O)c1ccc3nc(C4CC4)cn3c1)C1CC1)nc2-c1ccc(F)cc1 [Example 53] | < 500 | < 200 |  | 
COc1cc(C(=O)NC[C@](O)(c2cc3c(c(-c4ccc(F)cc4)n2)OC[C@]3(C)C(N)=O)C(F)(F)F)ccc1OC[C@@H](C)OP(=O)(O)O [Example 149] | > 500 | < 200 |  | 
COc1cc(C(=O)NC[C@](O)(c2cc3c(c(-c4ccc(F)cc4)n2)OC[C@]3(C)C(N)=O)C(F)(F)F)cc2cc(C3CC3)c(C)nc12 [Example 78] | > 500 | < 200 |  | 
COc1cc(C(=O)NC[C@](O)(c2cc3c(c(-c4ccc(Cl)c(F)c4)n2)OC[C@]3(C)C(N)=O)C(F)(F)F)cc2cn(C(F)F)nc12 [Example 300] | < 500 | < 200 |  | 
COc1cc(C(=O)NC[C@](O)(c2cc3c(c(-c4ccc(F)c(Cl)c4)n2)OC[C@]3(C)C(N)=O)C(F)(F)F)cn2cc(C3CC3)nc12 [Example 59] | < 500 | < 200 |  | 
COc1cc(C(=O)NC[C@](O)(c2cc3c(c(-c4ccc(F)cc4)n2)OC[C@]3(C)C(N)=O)C(F)(F)F)cc2cc(CO)c(C)nc12 [Example 75] | > 500 | < 200 |  | 
COc1cc(C(=O)NC[C@](O)(c2cc3c(c(-c4ccc(F)cc4)n2)OC[C@]3(C)C(N)=O)C(F)(F)F)ccc1OCC1(O)CC1 [Example 134] | > 500 | < 200 |  | 

Compound | EC50 [1, 3] [nM] | EC50 [2, 4] [nM] | EC50 ([1]; Method-A, MPV-GFP1 in Vero E6 cells, eGFP fluorescence after 5 days) [nM] | EC50 [2] [nM]
COc1cc(C(=O)NC[C@](O)(c2cc3c(c(-c4ccc(F)cc4)n2)OC[C@]3(C)C(N)=O)C(F)(F)F)cn2cc(C(F)F)nc12 [Example 64] | > 500 | < 200 |  | 
COc1cc(C(=O)NC[C@](O)(c2cc3c(c(-c4ccc(F)cc4)n2)OC[C@@]3(C(N)=O)C2CC2)C(F)(F)F)cc2cc(C(F)(F)F)cnc12 [Example 265] | < 500 | < 200 |  | 
COc1cc(C(=O)NC[C@](O)(c2cc3c(c(-c4ccc(F)cc4)n2)OC[C@]3(C)C(N)=O)C(F)(F)F)cc2nc(C3CC3)[nH]c12 [Example 95] | > 500 | < 200 |  | 
Cc1cc2cc(C(=O)NC[C@](O)(c3cc4c(c(-c5ccc(F)cc5)n3)OC[C@]4(C)C(N)=O)C(F)(F)F)cc(O)c2nc1C [Example 74] | < 500 | < 200 |  | 
C[C@]1(C(N)=O)COc2c1cc([C@@](O)(CNC(=O)c1cc(Cl)c3nn(C4CC4)cc3c1)C(F)(F)F)nc2-c1ccc(F)cc1 [Example 84] | < 500 | < 200 |  | 
C[C@]1(C(N)=O)COc2c1cc([C@@](O)(CNC(=O)c1cc(F)c3nc(C4CC4)cn3c1)C(F)(F)F)nc2-c1ccc(F)cc1 [Example 57] | > 500 | < 200 |  | 
C[C@]1(C(N)=O)COc2c1cc([C@@](O)(CNC(=O)c1cc(C(F)(F)F)c3[nH]ncc3c1)C(F)(F)F)nc2-c1ccc(F)cc1 [Example 105] | > 500 | < 200 |  | 
COc1cc(C(=O)NC[C@](O)(c2cc3c(c(-c4ccc(F)c(Cl)c4)n2)OC[C@]3(C)C(N)=O)C(F)(F)F)cc2cn(C3CC3)nc12 [Example 28] | < 500 | < 200 |  | 
Cc1nc2c(OC3CC3)cc(C(=O)NC[C@](O)(c3cc4c(c(-c5ccc(F)cc5)n3)OC[C@]4(C)C(N)=O)C(F)(F)F)cc2s1 [Example 80] | < 500 | < 200 |  | 
Cc1cc2cc(C(=O)NC[C@](O)(c3cc4c(c(-c5ccc(F)c(Cl)c5)n3)OC[C@]4(C)C(N)=O)C(F)(F)F)cc(OC(F)(F)F)c2nc1C [Example 184] | > 500 | < 200 |  | 
C[C@]1(C(N)=O)COc2c1cc([C@@](O)(CNC(=O)c1cc(F)c3nn(C(F)F)cc3c1)C(F)(F)F)nc2-c1ccc(F)cc1 [Example 43] | < 500 | < 200 |  | 
COc1cc(C(=O)NC[C@](O)(c2cc3c(c(-c4ccc(F)c(Cl)c4)n2)OC[C@]3(C)C(N)=O)C(F)(F)F)cc2cc(C)nnc12 [Example 10] | < 500 | < 200 |  | 
C[C@]1(C(N)=O)COc2c1cc([C@@](O)(CNC(=O)c1cc(NC(=O)NC3CC3)c3ncc(Cl)cc3c1)C(F)(F)F)nc2-c1ccc(F)cc1 [Example 218] | < 500 | < 200 |  | 
[2H]C([2H])([2H])c1cc(C(=O)NC[C@](O)(c2cc3c(c(-c4ccc(F)cc4)n2)OC[C@]3(C)C(N)=O)C(F)(F)F)cc2cn[nH]c12 [Example 128] | < 500 | < 200 |  | 
COc1cc(C(=O)NC[C@](O)(c2cc3c(c(-c4ccc(F)cc4)n2)OC[C@]3(C)C(N)=O)C(F)(F)F)cc2cc(C(F)F)c(C)nc12 [Example 148] | < 500 | < 200 |  | 
Cc1cc2cc(C(=O)NC[C@](O)(c3cc4c(c(-c5ccc(F)cc5)n3)OC[C@]4(C)C(N)=O)C(F)(F)F)cc(Cl)c2nc1C [Example 177] | < 500 | < 200 |  | 
C[C@]1(C(N)=O)COc2c1cc([C@@](O)(CNC(=O)c1cc(Cl)c3ncc(C(F)(F)F)cc3c1)C(F)(F)F)nc2-c1ccc(F)cc1 [Example 73] | < 500 | < 200 |  | 
Cc1cc2cc(C(=O)NC[C@](O)(c3cc4c(c(-c5ccc(F)c(Cl)c5)n3)OC[C@]4(C)C(N)=O)C(F)(F)F)cc(Cl)c2nc1C [Example 182] | < 500 | < 200 |  | 
C[C@]1(C(N)=O)COc2c1cc([C@@](O)(CNC(=O)c1cc(OC3CC3)c3nn(C4CC4)cc3c1)C(F)(F)F)nc2-c1ccc(F)c(Cl)c1 [Example 30] | < 500 | < 200 |  | 
C[C@]1(C(N)=O)COc2c1cc([C@@](O)(CNC(=O)c1cc(Cl)c3[nH]c(C4CC4)nc3c1)C(F)(F)F)nc2-c1ccc(F)cc1 [Example 94] | > 500 | < 200 |  | 
C[C@]1(C(N)=O)COc2c1cc([C@@](O)(CNC(=O)c1cc(F)c3nc(C4CC4)cn3c1)C(F)(F)F)nc2-c1ccc(F)c(Cl)c1 [Example 58] | < 500 | < 200 |  | 
C[C@]1(C(N)=O)COc2c1cc([C@@](O)(CNC(=O)c1cc(Cl)c3[nH]ccc3c1)C(F)(F)F)nc2-c1ccc(F)cc1 [Example 199] | > 500 | < 200 |  | 
COc1cc(C(=O)NC[C@](O)(c2cc3c(c(-c4ccc(F)cc4)n2)OC[C@]3(C)C(N)=O)C(F)(F)F)ccc1OC[C@@H](C)O [Example 138] | > 500 | < 200 |  | 
